# Data published in US8304422B2, “Compositions and methods for inhibition of the JAK pathway” (Rigel Pharmaceuticals, Inc., priority 2007, dated 2012).
# Tested on: Ramos B-Cell Line Stimulated with IL-4
# Assay: Assay for Ramos B-Cell Line Stimulated with IL-4 (CD23 upregulation, FACS; Example 2)
# Assay type: cell-based
# Conditions: human Ramos B cells, IL-4 50 units/mL for 20-24 hours, anti-CD23-PE
# Excerpt: One means of assaying for such inhibition is detection of the effect of the 2,4-pyrimidinediamine compounds on the upregulation of downstream gene products. In the Ramos/IL4 assay, B-cells are stimulated with the cytokine Interleukin-4 (IL-4) leading to the activation of the JAK/Stat pathway through phosphorylation of the JAK family kinases, JAK1 and JAK3, which in turn phosphorylate and activate the transcription factor Stat-6. […] To study the effect of inhibitors (e.g., the 2,4-substituted pyrimindinediamine compounds described herein) on the JAK1 and JAK3 kinases, human Ramos B cells are stimulated with human IL-4. 20 to 24 hours post stimulation, cells are stained for upregulation of CD23 and analyzed using flow cytometry (FACS). […] An exemplary assay of this type is described in greater detail in Example 2.
# B-cells stimulated with cytokine Interleukin-4 (IL-4) activate the JAK/Stat pathway through phosphorylation of the JAK family kinases, JAK-1 and JAK-3, which in turn phosphorylate and activate the transcription factor Stat-6. […] To study the effect of inhibitors on the JAK family kinases, human Ramos B cells are stimulated with human IL-4.
# The Ramos B-cell line was acquired from ATCC (ATCC Catalog No. CRL-1596). The cells were cultured in RPMI 1640 (Cellgro, MediaTech, Inc., Herndon, Va., Cat No. 10-040-CM) with 10% fetal bovine serum (FBS), heat inactivated (JRH Biosciences, Inc, Lenexa, Kans., Cat No. 12106-500M) according to ATCC propagation protocol. Cells were maintained at a density of 3.5×10^5. The day before the experiment, Ramos B-cells were diluted to 3.5×10^5 cells/mL to ensure that they were in a logarithmic growth phase.
# Cells were spun down and suspended in RPMI with 5% serum. 5×10^4 cells were used per point in a 96-well tissue culture plate. Cells were pre-incubated with compound or DMSO (Sigma-Aldrich, St. Louis, Mo., Cat No. D2650) vehicle control for 1 hour in a 37° C. incubator.
# Cells were then stimulated with IL-4 (Peprotech Inc., Rocky Hill, N.J., Cat No. 200-04) for a final concentration of 50 units/mL for 20-24 hours. Cells were then spun down and stained with anti-CD23-PE (BD Pharmingen, San Diego, Calif., Cat No. 555711) and analyzed by FACS. Detection was performed using a BD LSR I System Flow Cytometer, purchased from Becton Dickinson Biosciences of San Jose, Calif.
row,SMILES,IC50
1,"O=S(=O)(NC1CC1)c1ccc(Nc2nc(Nc3ccc(OCc4cccnc4)cc3)ncc2C(F)(F)F)cc1 [I-13, N4-[4-N—(Cyclopropyl)aminosulfonylphenyl]-N2-[4-(3-pyridinyl)methyleneoxyphenyl]-5-trifluoromethyl-2,4-pyrimidinediamine]",549 nM
2,"Cc1cnc(Nc2ccc3c(c2)ncn3CCO)nc1Nc1ccc(CNS(=O)(=O)C2CC2)cc1 [IV-8, N4-(4-cyclopropylsulfonylaminomethyl)phenyl-N2-[1-(2-hydroxyethyl)benzoimidazol-5-yl]-5-methyl-2,4-pyrimidinediamine]",257 nM
3,"O=S(=O)(NCc1ccc(Nc2nc(Nc3ccc(F)c(F)c3)ncc2F)cc1)C1CC1 [II-2, N4-(4-cyclopropylsulfonylaminomethyl)phenyl-N2-(3,4-difluoro)phenyl-5-fluoro-2,4-pyrimidinediamine]",614 nM
4,"CNC(=O)COc1cccc(Nc2ncc(N)c(Nc3cccc(S(N)(=O)=O)c3)n2)c1 [I-7, 5-Amino-N4-(3-aminosulfonylphenyl)-N2-[3-(N-methylamino)carbonylmethyleneoxyphenyl]-2,4-pyrimidinediamine]",5820 nM
5,"Cc1nc2ccc(Nc3ncc(F)c(Nc4ccc5c(c4)CCN5S(C)(=O)=O)n3)cc2[nH]1 [VIII-6, 5-Fluoro-N4-[(1-methylsulfonyl)indolin-5-yl]-N2-(2-methylbenzimidazol-5-yl)-2,4-pyrimidinediamine]",349 nM
6,"CS(=O)(=O)N1CCc2cc(Nc3nc(Nc4ccc5nc(C(F)(F)F)[nH]c5c4)ncc3F)ccc21 [VIII-4, 5-Fluoro-N4-[(1-methylsulfonyl)indolin-5-yl]-N2-(2-trifluoromethylbenzimidazol-5-yl)-2,4-pyrimidinediamine]",242 nM
7,"Cc1cnc(Nc2ccc3[nH]c(CN4CCOCC4)nc3c2)nc1Nc1ccc(CNS(=O)(=O)C2CC2)cc1 [IV-6, N4-(4-cyclopropylsulfonylaminomethyl)phenyl-5-methyl-N2-[2-(morpholin-4-yl)methylbenzoimidazol-5-yl]-2,4-pyrimidinediamine]",207 nM
8,"NS(=O)(=O)c1cccc(Nc2nc(Nc3ccc(OCc4ccccn4)cc3)ncc2C(F)(F)F)c1 [I-12, N4-(3-Aminosulfonylphenyl)-N2-[4-(2-pyridinyl)methyleneoxyphenyl]-5-trifluoromethyl-2,4-pyrimidinediamine]",1110 nM
9,"Cc1cnc(Nc2ccc(C#N)cc2)nc1Nc1ccc(CN(C)S(=O)(=O)C2CC2)cc1 [II-27, N2-(4-cyano)phenyl-N4-[4-(N-cyclopropylsulfonyl-N-methyl)aminomethyl]phenyl-5-methyl-2,4-pyrimidinediamine]",89200 nM
10,"Cc1cnc(Nc2ccc3[nH]c(-c4cccs4)nc3c2)nc1Nc1ccc(CNS(=O)(=O)C2CC2)cc1 [IV-5, N4-(4-cyclopropylsulfonylaminomethyl)phenyl-5-methyl-N2-[2-(thien-2-yl)benzoimidazol-5-yl]-2,4-pyrimidinediamine]",87.3 nM
11,"Nc1cnc(Nc2ccc3cn[nH]c3c2)nc1Nc1cccc(S(N)(=O)=O)c1 [VIII-8, 5-Amino-N4-(3-aminosulfonylphenyl)-N2-(indazoline-6-yl)-2,4-pyrimidinediamine]",5110 nM
12,"C#CCNS(=O)(=O)c1ccc(Nc2nc(Nc3cc(C)c(OC)c(C)c3)ncc2F)cc1 [I-5, N2-(3,5-Dimethyl-4-methoxyphenyl)-5-fluoro-N4-[4-(prop-2-ynylaminosulfonyl)phenyl]-2,4-pyrimidinediamine]",31.6 nM
13,"Cc1cnc(Nc2cccc(C(N)=O)c2)nc1Nc1ccc(CNS(=O)(=O)C2CC2)c(Cl)c1 [II-18, N2-(3-aminocarbonyl)phenyl-N4-(3-chloro-4-cyclopropylsulfonylaminomethyl)phenyl-5-methyl-2,4-pyrimidinediamine]",279 nM
14,"COc1ccc(Nc2ncc(F)c(Nc3ccc(CNS(=O)(=O)C4CC4)cc3)n2)cc1Cl [II-3, N2-(3-chloro-4-methoxy)phenyl-N4-(4-cyclopropylsulfonylaminomethyl)phenyl-5-fluoro-2,4-pyrimidinediamine]",116 nM
15,"COc1cccc(N(C)c2ncc(N)c(Nc3ccc(S(N)(=O)=O)cc3)n2)c1 [I-11, 5-Amino-N4-(4-aminosulfonylphenyl)-N2-(3-methoxyphenyl)-N2-methyl-2,4-pyrimidinediamine]",15900 nM
16,"CNC(=O)COc1cccc(Nc2ncc(N)c(Nc3ccc(S(N)(=O)=O)cc3)n2)c1 [I-6, 5-Amino-N4-(4-aminosulfonylphenyl)-N2-[3-(N-methylamino)carbonylmethyleneoxyphenyl]-2,4-pyrimidinediamine]",8800 nM
17,"Cc1cnc(Nc2cccc(C(N)=O)c2)nc1Nc1ccc(CN(C)S(=O)(=O)C2CC2)cc1 [II-20, N2-(3-aminocarbonyl)phenyl-N4-[4-(N-cyclopropylsulfonyl-N-methyl)aminomethyl]phenyl-5-methyl-2,4-pyrimidinediamine]",505 nM
18,"COc1cc(Nc2ncc(C)c(Nc3ccc4c(c3)C(NS(C)(=O)=O)CC4)n2)cc(OC)c1OC (racemic) [V-1, (+/−)-5-Methyl-N4-[1-(methylsulfonylamino)indan-6-yl]-N2-(3,4,5-trimethoxyphenyl)-2,4-pyrimidinediamine]",401 nM
19,"Cc1cnc(Nc2ccc3[nH]cnc3c2)nc1Nc1ccc(CNS(=O)(=O)C2CC2)cc1 [IV-1, N2-(benzoimidazol-5-yl)-N4-(4-cyclopropylsulfonylaminomethyl)phenyl-5-methyl-2,4-pyrimidinediamine]",74.7 nM
20,"Cc1cnc(Nc2ccc3[nH]c(C(F)(F)F)nc3c2)nc1Nc1ccc(CNS(=O)(=O)C2CC2)cc1 [IV-2, N4-(4-cyclopropylsulfonylaminomethyl)phenyl-5-methyl-N2-(2-trifluoromethylbenzoimidazol-5-yl)-2,4-pyrimidinediamine]",44 nM
21,"Cc1cnc(Nc2ccc3c(c2)nc(C)n3C)nc1Nc1ccc2c(c1)C(NS(C)(=O)=O)CC2 (racemic) [VIII-3, (+/−)-N2-(1,2-Dimethylbenzimidazol-5-yl)-N4-[1-(methylsulfonylamino)indan-6-yl]-5-methyl-2,4-pyrimidinediamine]",717 nM
22,"Cc1cnc(Nc2ccc3[nH]c(-c4cccnc4)nc3c2)nc1Nc1ccc(CNS(=O)(=O)C2CC2)cc1 [IV-3, N4-(4-cyclopropylsulfonylaminomethyl)phenyl-5-methyl-N2-[2-(pyridin-3-yl)benzoimidazol-5-yl]-2,4-pyrimidinediamine]",178 nM
23,"Cc1cnc(Nc2ccc3[nH]c(C(C)(C)C)nc3c2)nc1Nc1ccc(CNS(=O)(=O)C2CC2)cc1 [IV-4, N2-(2-tert-butylbenzoimidazol-5-yl)-N4-(4-cyclopropylsulfonylaminomethyl)phenyl-5-methyl-2,4-pyrimidinediamine]",127 nM
24,"COc1ccc(N(C)c2ncc(N)c(Nc3ccc(S(N)(=O)=O)cc3)n2)cc1 [I-9, 5-Amino-N4-(4-aminosulfonylphenyl)-N2-(4-methoxyphenyl)-N2-methyl-2,4-pyrimidinediamine]",99600 nM
25,"C#CCOc1ccc(Nc2ncc(C(F)(F)F)c(Nc3ccc(C)c(S(N)(=O)=O)c3)n2)cc1 [I-3, N4-(3-Aminosulfonyl-4-methylphenyl)-N2-[4-(prop-2-ynyloxy)phenyl]-5-trifluoromethyl-2,4-pyrimidinediamine]",153 nM
26,Cc1cc(Nc2ncc(F)c(Nc3ccc4c(c3)CCN4S(C)(=O)=O)n2)ccc1N1CCN(C)CC1 [VIII-5],70.9 nM
27,"COc1cccc(N(C)c2ncc(N)c(Nc3cccc(S(N)(=O)=O)c3)n2)c1 [I-10, 5-Amino-N4-(3-aminosulfonylphenyl)-N2-(3-methoxyphenyl)-N2-methyl-2,4-pyrimidinediamine]",64200 nM
28,"C#CCOc1ccc(Nc2ncc(C)c(Nc3ccc(C)c(S(N)(=O)=O)c3)n2)cc1 [I-2, N4-(3-Aminosulfonyl-4-methylphenyl)-5-methyl-N2-[4-(prop-2-ynyloxy)phenyl]-2,4-pyrimidinediamine]",181 nM
29,"Cc1cnc(Nc2cccc(C(N)=O)c2)nc1Nc1cccc(CNS(=O)(=O)C2CC2)c1 [II-24, N2-(3-aminocarbonyl)phenyl-N4-(3-cyclopropylsulfonylaminomethyl)phenyl-5-methyl-2,4-pyrimidinediamine]",280 nM
